Assay results taken from US9957273B2, “5-substituted 7- [4-(2-pyridyl)phenylmethylamino] -3-isopropylpyrazolo4,3-D]pyrimidine derivatives, use thereof as medicaments, and pharmaceutical compositions” (USTAV EXPERIMENTALNI BOTANIKY AV CR, V.V.I., priority 2015, dated 2018).

Experiments:
CDK5/p35 = target: T1, CDK5/p35 (Homo sapiens, UniProt Q00535); assay: CDK5/p35 kinase inhibition (33P-ATP, histone H1); assay type: biochemical; details: 0.15 μM ATP
T1 construct: purchased ProQinase GmbH
Method: CDK2/Cyclin E kinase was produced in Sf9 insect cells via baculoviral infection and purified on a NiNTA column (Qiagen). […] CDK5/p35 was purchased from ProQinase GmbH.
(§1) The reactions were stopped by adding 5 μL of 3% aq H3PO4. Aliquots were spotted onto P-81 phosphocellulose (Whatman), washed 3× with 0.5% aq H3PO4 and finally air-dried.

[1] = tested on: THP1 (human monocytic cell line); assay: MTT cytotoxicity assay, leukemic cell line THP1; assay type: cell-based; details: Homo sapiens, THP-1, 72 h, three days
Text: Cytotoxicity of the compounds is the major property determining their antileukemic efficacy in vivo. One of the parameters used, as the basis for cytotoxicity assays, is the metabolic activity of viable cells. For example, a microtiter assay, which uses (3-(4,5-dimethylthiazol-2-yl)-2,5-diphenyltetrazolium bromide (MTT), is widely used to quantitate cell proliferation and cytotoxicity. This assay is widely used in drug screening programs and in chemosensitivity testing. Because only metabolically active living cells reduce MTT to correspond purple formazan dye, these assays detect viable cells exclusively. The quantity of reduced MTT corresponds to the number of vital cells in the culture.
(§2) The compounds were assayed using the following leukemic cell lines: K562 (human chronic myelogenous leukaemia), HL60 (human promyelocytic leukaemia), CEM (human lymphoblastoid leukaemia), THP1 (human monocytic cell line), MV4; 11 (acute myelocytic leukemia). All cell lines were grown in RPMI medium supplemented with fetal bovine serum and L-glutamine and maintained at 37° C. in a humidified atmosphere with 5% CO2. For cytotoxicity assays, 2000-5000 cells were seeded into each well of 96 well plate, allowed to stabilize for at least 8 h and then tested compounds were added at various concentrations ranging from 100 to 0.01 μM in triplicates. After three days, MTT solution (5 mg/ml; Sigma, St. Louis, USA) was added to cells and medium was replaced with DMSO after five hours. The absorbance was measured at 620 nm by employing a microplate reader. MTT assays were repeated 3 times for each drug application and untreated cells were used as reference.

[2] = tested on: G361 (malignant melanoma); assay: MTT cytotoxicity assay, solid cancer cell line G361; assay type: cell-based; details: Homo sapiens, G-361, 72 h, three days
Method: as §2, with “following” for “following leukemic”, “G361 (malignant melanoma), MCF7 (breast adenocarcinoma), PLC/PRF/5 (liver hepatoma), PANC-1 (pancreatic carcinoma) and HCT116 (colon carcinoma).” for “K562 (human chronic myelogenous leukaemia), HL60 (human promyelocytic leukaemia), CEM (human lymphoblastoid leukaemia), THP1 (human monocytic cell line), MV4; 11 (acute myelocytic leukemia).”, “DMEM” for “RPMI”, “4000-10000” for “2000-5000”, “of a” for “of”, “16” for “8”

p53 = assay: Immunoblotting of apoptotic markers in HCT116 cells: p53; assay type: cell-based; details: 24 hours, FIG. 4
Method: (§3) Effect of novel compounds on apoptosis was confirmed by immunoblotting analysis of selected apoptotic proteins. For immunoblotting, cell were harvested, washed three times with ice-cold PBS and lysed in a buffer (50 mM Tris, pH 7.4, 250 mM NaCl, 5 mM EDTA, 50 mM NaF, 1 mM Na3VO4, 1% Nonidet P40) containing mixture of protease and phosphatase inhibitors (Sigma-Aldrich). 20 μg of total proteins were separated by SDS-polyacrylamide gel electrophoresis (SDS-PAGE) and transferred onto nitrocellulose membranes. Membranes were blocked in 5% milk and 0.1% Tween 20 in PBS and probed overnight with specific antibodies. Specific antibodies were purchased from SigmaAldrich (anti a-tubulin, clone DM1A), Santa Cruz Biotechnology (anti-Mcl-1, clone S-19; anti-PARP, clone F-2; anti-Mdm-2, clone SMP14; anti-Bcl-2), DAKO Cytomation Cell Signaling (anti-PUMA) or were a generous gift from Dr. B. Vojtesek (anti-p53, clone DO-1). All primary antibodies were diluted in PBS containing 5% powdered milk; 0.1% Tween 20. Peroxidase conjugated rabbit anti-mouse immunoglobulin or porcine anti-rabbit immunoglobulin antisera (DAKO) were used as the secondary antibodies and visualised with ECL reagents (GE-Healthcare Life Sciences).

[3] = tested on: PANC-1 (pancreatic carcinoma); assay: MTT cytotoxicity assay, solid cancer cell line PANC-1; assay type: cell-based; details: Homo sapiens, PANC-1, 72 h, three days
Method: as §2, with “following” for “following leukemic”, “G361 (malignant melanoma), MCF7 (breast adenocarcinoma), PLC/PRF/5 (liver hepatoma), PANC-1 (pancreatic carcinoma) and HCT116 (colon carcinoma).” for “K562 (human chronic myelogenous leukaemia), HL60 (human promyelocytic leukaemia), CEM (human lymphoblastoid leukaemia), THP1 (human monocytic cell line), MV4; 11 (acute myelocytic leukemia).”, “DMEM” for “RPMI”, “4000-10000” for “2000-5000”, “of a” for “of”, “16” for “8”

CDK2/Cyclin E = target: T2, CDK2/Cyclin E (Homo sapiens, UniProt P24941); assay: CDK2/Cyclin E kinase inhibition (33P-ATP, histone H1); assay type: biochemical; details: 15 μM ATP
T2 construct: made in house; host or cells: Sf9 insect cells (baculovirus)
Method: CDK2/Cyclin E kinase was produced in Sf9 insect cells via baculoviral infection and purified on a NiNTA column (Qiagen). The kinase reactions were assayed with 1 mg/mL histone H1 in the presence of 15 μM ATP, 0.05 μCi [γ-^33P]ATP and of the test compound in a final volume of 10 μL, all in a reaction buffer (60 mM HEPES-NaOH, pH 7.5, 3 mM MgCl2, 3 mM MnCl2, 3 μM Na-orthovanadate, 1.2 mM DTT, 2.5 μg/50 μl PEG20.000). CDK5/p35 was purchased from ProQinase GmbH. The kinase reactions were assayed with 1 mg/mL histone H1 in the presence of 0.15 μM ATP, 0.05 μCi [γ-^33P]ATP and of the test compound in a final volume of 10 μL, all in a reaction buffer (60 mM HEPES-NaOH, pH 7.5, 3 mM MgCl2, 3 mM MnCl2, 3 μM Na-orthovanadate, 1.2 mM DTT, 2.5 μg/50 μl PEG20.000).
as §1

Mdm-2 = assay: Immunoblotting of apoptotic markers in HCT116 cells: Mdm-2; assay type: cell-based; details: 24 hours, FIG. 4
Method: as §3

[4] = tested on: caspases 3 and 7 in HCT116 cells; assay: Caspase-3/7 activity assay in HCT116 cells; assay type: cell-based; details: 24 h, FIG. 3
Method: Measurement of proapoptotic properties of new compounds was based on quantification of enzymatic activities of caspases-3/7. Activity of cellular caspase-3/7 was measured according to Carrasco et al., 2003, BioTechniques, 34(5): 1064-67. Briefly, the cells were incubated in a 96-well plate overnight. Next day, the compounds in appropriate concentrations were added and cells were incubated for 24 hours. After incubation, 3× caspase-3/7 assay buffer (150 mM HEPES pH 7.4, 450 mM NaCl, 150 mM KCl, 30 mM MgCl2, 1.2 mM EGTA, 1.5% Nonidet P40, 0.3% CHAPS, 30% sucrose, 30 mM DTT, 3 mM PMSF) with 150 μM Ac-DEVD-AMC as a substrate (Sigma-Aldrich) was added to the wells and plates were incubated at 37° C. […]. The caspase activity was measured using Fluoroskan Ascent microplate reader (Labsystems) at 346 nm/442 nm (excitation/emission).

T1 sequence (Q00535 whole entry): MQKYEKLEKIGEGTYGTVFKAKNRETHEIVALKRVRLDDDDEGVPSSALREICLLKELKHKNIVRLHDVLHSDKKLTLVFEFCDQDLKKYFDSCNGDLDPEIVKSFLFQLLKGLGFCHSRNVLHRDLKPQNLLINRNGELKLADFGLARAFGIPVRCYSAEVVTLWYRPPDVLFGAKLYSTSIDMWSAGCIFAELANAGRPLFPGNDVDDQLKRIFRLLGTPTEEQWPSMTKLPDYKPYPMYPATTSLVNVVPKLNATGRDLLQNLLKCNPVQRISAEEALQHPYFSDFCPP
T1 sequence (Q15078 whole entry partner): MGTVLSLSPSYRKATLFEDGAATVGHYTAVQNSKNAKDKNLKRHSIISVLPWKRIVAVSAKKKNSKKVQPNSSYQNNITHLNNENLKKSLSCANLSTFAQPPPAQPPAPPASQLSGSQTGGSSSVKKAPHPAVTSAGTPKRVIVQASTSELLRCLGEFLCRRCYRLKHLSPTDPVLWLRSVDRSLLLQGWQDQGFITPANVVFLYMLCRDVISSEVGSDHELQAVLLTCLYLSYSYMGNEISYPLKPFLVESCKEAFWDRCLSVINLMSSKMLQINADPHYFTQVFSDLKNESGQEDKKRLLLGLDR

- IC50 (CDK5/p35): 0.017 µM
- IC50 (CDK2/Cyclin E): 0.051 µM
SMILES: CC(C)c1[nH]nc2c(NCc3ccc(-c4ccccn4)cc3)nc(NCC(O)CN)nc12 (centres unmarked) [Compound 45]
- IC50 [1]: 0.49 µM
- IC50 [2]: 0.22 µM
- expression of tumor suppressor protein p53 (immunoblot) (p53): rapidly increased the expression
- IC50 [3]: 0.32 µM
- expression of Mdm-2 (immunoblot) (Mdm-2): decreased expression
- caspase-3/7 activity in HCT116 cells [4]: potent dose-dependent activation of the caspases in nanomolar concentrations
